What is called IC50 is the concentration at which inhibition is half-maximal. A word on the inhibition: it is the drop in the measured response relative to a control, in per cent.

Data set [1] relates to latent HIV in total CD4+ T cells. Description: microbe, parasite or virus in culture. The data set is classed as cell-based, HIV-1. The conditions noted are these: inhibitor 5 μM with DMSO, no agonist. Here is the method:
Peripheral blood mononuclear cells and CD4^+ T cells used for evaluating PKC agonist and inhibitor molecules were isolated from leukopaks of selected participants as described previously. Isolated CD4^+ T cells (5×10^6 cells/well) were added to 24-well tissue culture plates in 2.5 mL of RPMI medium containing 100 nM each of elvitegravir and efavirenz. Cells were stimulated with DMSO (vehicle control) or the indicated concentrations of PKC agonist molecules. Cells were pretreated with PKC isoform inhibitors (Selleck Chemicals) for 1 hour before addition of PKC agonist at indicated concentrations and maintained at 37 °C, 5% CO2 for 3 days. Cell supernatants from each well were analyzed using the Cobas […] system for quantification of HIV-1 RNA using the HIV-1 test v2.0 kit (Roche Diagnostics).

The next data set has as its target PKC-θ (Homo sapiens, UniProt Q04759). Put plainly: Z'-LYTE kinase activity assay. The data set is classed as biochemical. The conditions noted are these: ATP at Kmapp, 2 μM peptide substrate; read-out: IC50 for novel PKC isoforms, PKC-θ. From the text:
(§1) In this assay, phosphorylation of a synthetic FRET-peptide substrate protects the peptide from cleavage by the development reagent and prevents disruption of the FRET signal.

A further data set addresses PKC-η (Homo sapiens, UniProt P24723). Description: Z'-LYTE kinase activity assay. The conditions noted are these: ATP at Kmapp, 2 μM peptide substrate; read-out: IC50 for novel PKC isoforms, PKC-η. The data set is classed as biochemical.
Text: as §1

Another data set addresses PKC-β1 (Homo sapiens, UniProt P05771). Put plainly: Z'-LYTE kinase activity assay. The data set is classed as biochemical. The conditions noted are these: ATP at Kmapp, 2 μM peptide substrate; read-out: IC50 for classical PKC isoforms, PKC-β1.
Text: as §1

A further data set deals with PKC-α (Homo sapiens, UniProt P17252). Put plainly: Z'-LYTE kinase activity assay. The data set is classed as biochemical. The note with it: ATP at Kmapp, 2 μM peptide substrate; read-out: IC50 for classical PKC isoforms, PKC-α.
Text: as §1

The next data set has as its target PKC-γ (Homo sapiens, UniProt P05129). Put plainly: Z'-LYTE kinase activity assay. The class given is biochemical. The conditions noted are these: ATP at Kmapp, 2 μM peptide substrate; read-out: IC50 for classical PKC isoforms, PKC-γ.
Text: as §1

For a further data set, the target named is PKC-β2 (Homo sapiens, UniProt P05771). Put plainly: Z'-LYTE kinase activity assay. The class given is biochemical. The note with it: ATP at Kmapp, 2 μM peptide substrate; read-out: IC50 for classical PKC isoforms, PKC-β2.
Sequence of PKC-β2 (P05771 1-673 isoform P05771-2): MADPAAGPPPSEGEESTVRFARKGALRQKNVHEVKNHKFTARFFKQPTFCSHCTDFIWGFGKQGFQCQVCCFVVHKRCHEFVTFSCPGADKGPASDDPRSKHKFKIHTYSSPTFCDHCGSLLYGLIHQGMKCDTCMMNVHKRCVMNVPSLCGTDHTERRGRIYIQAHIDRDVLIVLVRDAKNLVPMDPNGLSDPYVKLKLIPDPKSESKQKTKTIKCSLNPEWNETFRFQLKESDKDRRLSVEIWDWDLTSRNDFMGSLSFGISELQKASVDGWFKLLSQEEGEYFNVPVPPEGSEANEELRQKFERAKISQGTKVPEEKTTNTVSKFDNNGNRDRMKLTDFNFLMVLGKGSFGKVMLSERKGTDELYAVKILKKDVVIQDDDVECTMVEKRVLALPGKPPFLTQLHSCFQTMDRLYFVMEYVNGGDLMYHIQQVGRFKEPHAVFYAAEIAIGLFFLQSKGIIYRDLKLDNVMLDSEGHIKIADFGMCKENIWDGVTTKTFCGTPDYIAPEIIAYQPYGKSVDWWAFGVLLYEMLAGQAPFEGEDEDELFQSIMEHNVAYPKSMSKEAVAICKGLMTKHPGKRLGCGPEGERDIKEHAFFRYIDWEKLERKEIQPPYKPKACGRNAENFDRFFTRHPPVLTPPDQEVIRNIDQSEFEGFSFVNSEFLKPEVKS
Text: as §1

The next data set addresses T1, PKC-ε (Homo sapiens, UniProt Q02156).
T1 sequence (Q02156 1-737): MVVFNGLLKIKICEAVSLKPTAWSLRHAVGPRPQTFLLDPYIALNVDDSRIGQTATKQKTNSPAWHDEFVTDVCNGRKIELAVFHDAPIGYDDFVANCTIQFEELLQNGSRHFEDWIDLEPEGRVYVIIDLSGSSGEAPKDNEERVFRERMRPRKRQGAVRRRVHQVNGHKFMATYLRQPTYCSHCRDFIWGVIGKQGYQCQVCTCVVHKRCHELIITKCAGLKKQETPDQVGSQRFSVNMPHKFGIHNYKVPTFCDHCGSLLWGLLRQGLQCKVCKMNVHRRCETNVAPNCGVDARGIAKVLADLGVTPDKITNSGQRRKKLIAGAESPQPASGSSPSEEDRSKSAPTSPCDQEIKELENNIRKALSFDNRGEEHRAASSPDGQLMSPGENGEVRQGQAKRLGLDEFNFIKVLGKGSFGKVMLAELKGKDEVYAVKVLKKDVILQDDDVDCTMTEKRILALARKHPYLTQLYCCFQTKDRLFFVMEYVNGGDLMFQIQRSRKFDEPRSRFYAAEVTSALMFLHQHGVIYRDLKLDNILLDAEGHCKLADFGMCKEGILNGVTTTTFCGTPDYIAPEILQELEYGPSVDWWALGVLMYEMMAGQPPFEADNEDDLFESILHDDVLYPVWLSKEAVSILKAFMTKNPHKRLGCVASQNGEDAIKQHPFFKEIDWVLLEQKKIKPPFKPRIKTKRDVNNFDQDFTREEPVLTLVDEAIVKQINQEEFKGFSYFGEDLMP
Put plainly: Z'-LYTE kinase activity assay. The class given is biochemical.
Text: as §1

For a further data set, the target named is PKC-δ (Homo sapiens, UniProt Q05655). Put plainly: Z'-LYTE kinase activity assay. The class given is biochemical. The note with it: ATP at Kmapp, 2 μM peptide substrate; read-out: IC50 for novel PKC isoforms, PKC-δ.
Sequence of PKC-δ (Q05655 whole entry, canonical isoform): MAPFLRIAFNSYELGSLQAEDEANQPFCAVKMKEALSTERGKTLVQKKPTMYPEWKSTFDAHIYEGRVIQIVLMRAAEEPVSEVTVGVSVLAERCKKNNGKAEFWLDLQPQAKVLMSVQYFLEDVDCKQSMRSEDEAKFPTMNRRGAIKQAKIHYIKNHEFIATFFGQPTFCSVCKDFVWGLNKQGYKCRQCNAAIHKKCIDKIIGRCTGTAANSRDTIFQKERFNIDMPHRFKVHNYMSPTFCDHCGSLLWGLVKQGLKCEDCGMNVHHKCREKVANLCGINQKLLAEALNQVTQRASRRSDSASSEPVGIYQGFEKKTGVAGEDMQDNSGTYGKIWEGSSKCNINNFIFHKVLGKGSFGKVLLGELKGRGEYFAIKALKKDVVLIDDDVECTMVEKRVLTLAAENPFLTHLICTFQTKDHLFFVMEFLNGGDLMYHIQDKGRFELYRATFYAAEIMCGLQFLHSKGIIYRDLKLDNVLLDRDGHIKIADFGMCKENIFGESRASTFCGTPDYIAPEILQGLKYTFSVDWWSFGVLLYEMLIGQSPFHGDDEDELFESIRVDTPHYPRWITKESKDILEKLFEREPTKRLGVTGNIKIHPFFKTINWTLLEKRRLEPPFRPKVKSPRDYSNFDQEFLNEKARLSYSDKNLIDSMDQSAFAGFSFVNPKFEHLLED
Text: as §1

Data set [2] relates to classical and novel PKC isoforms. Description: Estimated PKC inhibition in cell culture from Z'-LYTE IC50 and free fraction. The data set is classed as biochemical. The note with it: 5 µM, 46% free in cell culture media.
Text: as §1

Data set [3] is described as follows: Free fraction in cell culture media. The data set is classed as in vitro ADME.
In data set [4] the test system is platelets (CD62P+) and CD4+ T cells (CD69+) in whole blood. Put plainly: In vitro whole blood platelet and CD4+ T-cell activation assay. The class given is cell-based, human. The note with it: whole blood from healthy donors; platelets to CD4+ T cells. Here is the method:
We developed a novel human whole blood assay to determine whether other PKC agonists also activate platelets at the same concentrations that are required to activate CD4^+ T cells. Platelet activation was assessed by CD62P (P-selectin), which traffics to the cell surface upon activation and α-granule release. CD4^+ T-cell activation was assessed by CD69 upregulation (Fig 7A).
Whole blood was drawn into sodium citrate tubes using a 21-gauge needle. To prevent potential interference from tissue thromboplastin released during venipuncture, which could affect the accuracy of coagulation testing, the first 2 mL of blood drawn was discarded. PKC agonist molecules were dispensed in a dilution series into 80 μL of blood per well in a flat-bottom 96-well plate and mixed gently. Care was taken not to introduce any mechanical stress-related activation of platelets. […] The remaining 72 μL of blood in the first plate was incubated for 1 additional hour and stained with anti-human CD3 (UCHT1), CD4 (SK3), and CD69 (FN50) (30 minutes in the dark). Red blood cell lysis and fixing was done using BD lyse/fix solution. Stained cells were acquired on BD LSR Fortessa II after washing. […] EC50 values for platelet and CD4 T-cell activation for each agonist was obtained by nonlinear regression curve fit using GraphPad Prism version 9.3.0.

For data set [5] the following is noted: cited from earlier work.

Sequence of PKC-β1 (P05771 whole entry, canonical isoform): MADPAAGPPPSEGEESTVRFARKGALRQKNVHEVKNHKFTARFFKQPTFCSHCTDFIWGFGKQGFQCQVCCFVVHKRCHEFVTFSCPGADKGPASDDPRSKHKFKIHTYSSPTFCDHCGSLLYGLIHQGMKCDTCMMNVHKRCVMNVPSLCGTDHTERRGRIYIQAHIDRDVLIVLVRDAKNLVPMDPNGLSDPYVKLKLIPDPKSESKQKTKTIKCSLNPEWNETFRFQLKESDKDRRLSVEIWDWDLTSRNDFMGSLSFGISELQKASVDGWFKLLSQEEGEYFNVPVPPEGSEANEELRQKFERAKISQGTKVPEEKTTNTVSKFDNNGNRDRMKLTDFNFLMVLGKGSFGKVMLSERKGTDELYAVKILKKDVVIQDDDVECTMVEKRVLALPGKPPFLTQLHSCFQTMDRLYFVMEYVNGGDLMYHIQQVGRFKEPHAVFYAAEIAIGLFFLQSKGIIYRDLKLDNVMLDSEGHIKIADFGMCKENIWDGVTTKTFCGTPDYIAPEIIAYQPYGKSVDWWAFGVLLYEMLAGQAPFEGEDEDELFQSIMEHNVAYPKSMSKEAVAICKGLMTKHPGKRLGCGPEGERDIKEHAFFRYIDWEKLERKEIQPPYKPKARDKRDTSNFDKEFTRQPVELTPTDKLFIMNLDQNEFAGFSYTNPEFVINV
Sequence of PKC-θ (Q04759 whole entry, canonical isoform): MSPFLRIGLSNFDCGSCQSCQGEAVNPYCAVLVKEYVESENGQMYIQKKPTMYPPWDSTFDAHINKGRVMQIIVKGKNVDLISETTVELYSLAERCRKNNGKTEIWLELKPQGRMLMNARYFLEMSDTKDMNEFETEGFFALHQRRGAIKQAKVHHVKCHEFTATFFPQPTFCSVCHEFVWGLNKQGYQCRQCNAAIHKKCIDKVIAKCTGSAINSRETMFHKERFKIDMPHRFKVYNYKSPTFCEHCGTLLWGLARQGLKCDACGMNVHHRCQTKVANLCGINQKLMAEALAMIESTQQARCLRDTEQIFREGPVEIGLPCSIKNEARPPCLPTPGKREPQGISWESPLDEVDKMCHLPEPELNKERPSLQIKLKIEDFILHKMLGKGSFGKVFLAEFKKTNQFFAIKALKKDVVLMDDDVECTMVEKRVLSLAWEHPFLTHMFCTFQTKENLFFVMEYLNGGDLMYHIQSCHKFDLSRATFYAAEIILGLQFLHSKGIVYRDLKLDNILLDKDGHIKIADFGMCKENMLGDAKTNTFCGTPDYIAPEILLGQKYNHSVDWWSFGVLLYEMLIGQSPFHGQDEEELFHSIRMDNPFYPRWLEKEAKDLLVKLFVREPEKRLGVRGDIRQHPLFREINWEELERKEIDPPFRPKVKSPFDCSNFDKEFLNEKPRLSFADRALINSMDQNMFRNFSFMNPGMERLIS
Sequence of PKC-η (P24723 whole entry, canonical isoform): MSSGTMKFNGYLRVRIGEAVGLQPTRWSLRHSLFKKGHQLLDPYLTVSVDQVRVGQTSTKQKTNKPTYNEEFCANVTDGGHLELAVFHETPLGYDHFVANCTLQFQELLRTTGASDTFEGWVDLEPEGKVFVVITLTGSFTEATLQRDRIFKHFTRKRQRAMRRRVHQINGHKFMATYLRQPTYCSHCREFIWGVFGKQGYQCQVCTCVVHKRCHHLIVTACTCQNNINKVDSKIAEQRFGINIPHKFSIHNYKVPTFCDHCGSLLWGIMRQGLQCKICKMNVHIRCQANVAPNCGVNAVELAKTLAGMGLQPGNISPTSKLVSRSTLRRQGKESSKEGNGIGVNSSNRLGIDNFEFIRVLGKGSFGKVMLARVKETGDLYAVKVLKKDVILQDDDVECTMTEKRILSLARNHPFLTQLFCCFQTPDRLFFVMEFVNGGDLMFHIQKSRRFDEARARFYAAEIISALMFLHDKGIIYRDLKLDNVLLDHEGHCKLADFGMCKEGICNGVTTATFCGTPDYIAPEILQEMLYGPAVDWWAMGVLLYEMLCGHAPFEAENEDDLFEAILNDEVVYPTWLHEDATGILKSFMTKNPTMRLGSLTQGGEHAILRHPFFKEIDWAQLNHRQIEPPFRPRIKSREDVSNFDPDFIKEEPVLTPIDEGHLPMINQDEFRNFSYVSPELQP

On to `CN(C)CCCn1cc(C2=C(c3c[nH]c4ccccc34)C(=O)NC2=O)c2ccccc21` [Gӧ-6850], for which the “HIV RNA Fold∆ over DMSO, Geomean” value in data set [1] was found to be 1.2 fold. Further, the half-maximal inhibitory concentration (IC50) at PKC-θ worked out at 3 nM; at PKC-η it was 11.3 nM; at PKC-β1, 0.457 nM; on PKC-α it was 2.53 nM; at PKC-γ it was 2.18 nM; on PKC-β2 it was 0.331 nM. Also, the half-maximal inhibitory concentration (IC50) on PKC-ε (ATP at Kmapp, 2 μM peptide substrate, read-out: IC50 for novel PKC isoforms, PKC-ε) was found to be 67.6 nM; at PKC-δ it was 9.63 nM. Further, on PKC-ε (5 µM, 46% free in cell culture media, read-out: estimated inhibition of PKC-ε), the inhibition at 5 µM was 70%. Further, the “estimated inhibition of all classical and novel isoforms, except PKC-ε” value in data set [2] is reported as more than 90%. Also, the “free in cell culture media” value in data set [3] amounted to 46%.

On to `CCC/C=C/C=C/C(=O)O[C@H]1/C(=C/C(=O)OC)C[C@H]2C[C@H]([C@@H](C)O)OC(=O)C[C@H](O)C[C@@H]3C[C@H](OC(C)=O)C(C)(C)[C@](O)(C[C@@H]4C/C(=C/C(=O)OC)C[C@H](/C=C/C(C)(C)[C@]1(O)O2)O4)O3` [Bryostatin, reference compound], for which the “CD62P EC50/CD69 EC50 ratio Geomean” value in [4] amounted to 0.9. Also, the dose-limiting toxicity entry in [5] is on record as “myalgia”.

The record behind these values is paper PMC11801715, “Activating PKC-ε induces HIV expression with improved tolerability” (PLOS Pathogens, 2025).
